Measurements taken from patent US20100279990A1, “ANTIPROLIFERATIVE COMPOUNDS, COMPOSITIONS AND METHODS OF USE” (RAMOT AT TEL-AVIV UNIVERSITY LTD., priority 2006, published 2010).
pIC50: −log10 of the molar value.

Tests used:
[1] = test system: human keratinocytes (HaCat cells); test: Viability of human keratinocytes (HaCat cells), neutral red staining; type: cell-based; details: 24 hr, read-out: IC50, cell viability
[2] = test system: c-jun and p-c-jun expression in HaCat cells; test: Western blot of c-jun and p-c-jun expression in HaCat cells; type: cell-based, human; details: 15 μM, 1 hr
Source text: For each sample 2×10^7 cells were used. The cells were lysed, and equal amounts of protein was fractionated on polyacrylamide gel and then transferred to PVDF membrane. The amount of the protein was detected by immuno-blotting with monoclonal anti-c-Jun or p-c-Jun antibodies (Cayman, Ann Arbor, Mich., USA). A second antibody conjugated to horseradish peroxidase was used and visualized with chemiluminescent Kit (Pierce, Rockford, Ill., USA) on film. […] Activation of the […] pathway produces p-c-Jun as a major end, while initiating apoptosis in certain cell-lines.

[3] = test system: LS1034 human colon MDR carcinoma cells; test: Viability of LS1034 human colon MDR carcinoma cells (FIG. 7B); type: cell-based
Source text: This example illustrates cell viability obtained by separately administering different concentrations of compound (Ia), sertraline, doxorubicin, cisplatin, fluorouracil (5-FU), methotrexate (MTX), and vincristin to LS1034 human colon MDR carcinoma cells. The results are depicted in FIG. 7B.

male Balb/C mice = test: Acute toxicity in male Balb/C mice, ip; type: in vivo
Method: This example illustrates acute toxicity data derived from the treatment of male Balb/C mice with different concentrations of compound (Ia). The results are depicted in FIG. 11. Compound (Ia) was administered ip to groups of mice at doses of 10, 20 and 30 mg/kg. Sertraline was also administered to one group at 30 mg/kg. Each group of mice included five animals.
Body weight was determined up to 12 days after drug administration.

Jurkat Lymphoma cells = test: Viability of Jurkat Lymphoma cells, combination with Doxorubicin; type: cell-based; details: Homo sapiens, read-out: inhibition of cell viability
[4] = test system: human Jurkat lymphoma cells; test: Viability of human Jurkat lymphoma cells, dexamethasone alone and in combination; type: cell-based
[5] = test system: CEM/C1 human leukemia cells; test: Cell proliferation of CEM/C1 human leukemia cells, 3H thymidine incorporation; type: cell-based
Method: […] Cells, 10,000/well, were harvested and the incorporated radioactivity was determined by liquid scintillation in a beta counter.

human tumor cell lines = test: In vitro antitumor activity in panel of 37 human tumor cell lines (Monolayer Assay, PI), summary; type: cell-based
CNXF SF268 = test: Monolayer Assay, PI: CNXF SF268; type: cell-based, human
Source text: (§1) This example illustrates cell proliferation data in the form of IC50, IC70 and IC90 values obtained by exposure of human cancer cell-lines to compound (Ia). […].

LXF 529L = test: Monolayer Assay, PI: LXF 529L (Lung); type: cell-based, human
Source text: as §1

MAXF 401NL = test: Monolayer Assay, PI: MAXF 401NL (Breast); type: cell-based, human
Source text: as §1

MEXF 394NL = test: Monolayer Assay, PI: MEXF 394NL (Melanoma); type: cell-based, human
Source text: as §1

PRXF DU145 = test: Monolayer Assay, PI: PRXF DU145 (Prostate); type: cell-based, human
Source text: as §1

RXF 393NL = test: Monolayer Assay, PI: RXF 393NL (Renal); type: cell-based, human
Source text: as §1

RXF 486L = test: Monolayer Assay, PI: RXF 486L (Renal); type: cell-based, human
Source text: as §1

[6] = test system: human colon carcinoma cells (HT29)
[7] = mean over human cancer cell-lines

CN[C@H]1CC[C@@H](c2ccc(Cl)c(Cl)c2)c2ccc(C#CCCCO)cc21 [compound (Ia), (1S-cis)-4-(3,4-dichlorophenyl)-7-(5-hydroxy-1-pentyn-1-yl)-1,2,3,4-tetrahydro-N-methyl-1-naphthalenamine hydroiodide]
pIC50 [1]: 4.73 | effect on c-Jun / p-c-Jun (MAPK pathway) [2]: activation of the c-Jun-N-terminal kinase (JNK) pathway | effect on resistant cancer cells [3]: has the ability to suppress resistant cancer cells | behavioral changes (male Balb/C mice; ip 10, 20 and 30 mg/kg, observed 4 h and after 24 h): none of the animals showed any observed change in behavior | changes in food intake or body weight (male Balb/C mice; ip 10, 20 and 30 mg/kg, over 12 days): none of the animals exhibited changes in food intake or body weight | tolerability of acute ip administration (male Balb/C mice; ip, up to 30 mg/kg): well tolerated | cytotoxicity at 5 µM (Jurkat Lymphoma cells; 5 μM alone): 18% | cytotoxicity at 10 µM (Jurkat Lymphoma cells; 10 μM alone): 59.5% | inhibition of cell viability compared with sertraline and paroxetine ([4]; FIG. 13A): higher than that produced by either sertraline or paroxetine | cytotoxicity at 20 µM ([4]; Homo sapiens, 20 μM alone, FIG. 13B, read-out: inhibition of cell viability): 69% | effect compared to sertraline and paroxetine [5]: significantly higher effects compared to sertraline and paroxetine | cell proliferation ([5]; 1 μM, 3H thymidine incorporation 24 hours): 38.8 % of controls | inhibition at 10 µM ([5]; Homo sapiens, 10 μM, 3H thymidine incorporation): ~95% | effect on cell proliferation ([5]; already evident at 1 μM): dose dependent decrease in cell proliferation | active*/total cell lines (human tumor cell lines; 2.3 μg/ml): 0/37 | active*/total cell lines, percent (human tumor cell lines; 2.3 μg/ml): 0% | active*/total cell lines (human tumor cell lines; 7.5 μg/ml): 26/37 | active*/total cell lines, percent (human tumor cell lines; 7.5 μg/ml (text: concentration of 7.5), hydroiodide): 70% | active*/total cell lines (human tumor cell lines; 23. μg/ml): 37/37 | active*/total cell lines, percent (human tumor cell lines; 23. μg/ml): 100% | active*/total cell lines (human tumor cell lines; 75. μg/ml): 37/37 | active*/total cell lines, percent (human tumor cell lines; 75. μg/ml): 100% | active*/total cell lines (human tumor cell lines; .75 μg/ml): 0/37 | active*/total cell lines, percent (human tumor cell lines; .75 μg/ml): 0% | pIC50 (human tumor cell lines; [7]): 5.31 | mean IC70 (human tumor cell lines; [7]): 6.9 µM | Test/Control (%) (CNXF SF268; 2.3 μg/ml): 70% | Test/Control activity class (CNXF SF268; 2.3 μg/ml): − (− (T/C = 50)) | Test/Control (%) (CNXF SF268; 7.5 μg/ml): 5% | Test/Control activity class (CNXF SF268; 7.5 μg/ml): +++ (+++ (T/C < 10)) | Test/Control (%) (CNXF SF268; 23. μg/ml): 4% | Test/Control activity class (CNXF SF268; 23. μg/ml): +++ (+++ (T/C < 10)) | Test/Control (%) (CNXF SF268; 75. μg/ml): 3% | Test/Control activity class (CNXF SF268; 75. μg/ml): +++ (+++ (T/C < 10)) | Test/Control (%) (CNXF SF268; .75 μg/ml): 91% | Test/Control activity class (CNXF SF268; .75 μg/ml): − (− (T/C = 50)) | Test/Control (%) (LXF 529L; 2.3 μg/ml): 97% | Test/Control activity class (LXF 529L; 2.3 μg/ml): − (− (T/C = 50)) | Test/Control (%) (LXF 529L; 7.5 μg/ml): 17% | Test/Control activity class (LXF 529L; 7.5 μg/ml): ++ (++ (10 <= T/C < 30)) | Test/Control (%) (LXF 529L; 23. μg/ml): 3% | Test/Control activity class (LXF 529L; 23. μg/ml): +++ (+++ (T/C < 10)) | Test/Control (%) (LXF 529L; 75. μg/ml): 5% | Test/Control activity class (LXF 529L; 75. μg/ml): +++ (+++ (T/C < 10)) | Test/Control (%) (LXF 529L; .75 μg/ml): 93% | Test/Control activity class (LXF 529L; .75 μg/ml): − (− (T/C = 50)) | Test/Control (%) (MAXF 401NL; 2.3 μg/ml): 70% | Test/Control activity class (MAXF 401NL; 2.3 μg/ml): − (− (T/C = 50)) | Test/Control (%) (MAXF 401NL; 7.5 μg/ml): 9% | Test/Control activity class (MAXF 401NL; 7.5 μg/ml): +++ (+++ (T/C < 10)) | Test/Control (%) (MAXF 401NL; 23. μg/ml): 3% | Test/Control activity class (MAXF 401NL; 23. μg/ml): +++ (+++ (T/C < 10)) | Test/Control (%) (MAXF 401NL; 75. μg/ml): 3% | Test/Control activity class (MAXF 401NL; 75. μg/ml): +++ (+++ (T/C < 10)) | Test/Control (%) (MAXF 401NL; .75 μg/ml): 103% | Test/Control activity class (MAXF 401NL; .75 μg/ml): − (− (T/C = 50)) | Test/Control (%) (MEXF 394NL; 2.3 μg/ml): 59% | Test/Control activity class (MEXF 394NL; 2.3 μg/ml): − (− (T/C = 50)) | Test/Control (%) (MEXF 394NL; 7.5 μg/ml): 3% | Test/Control activity class (MEXF 394NL; 7.5 μg/ml): +++ (+++ (T/C < 10)) | Test/Control (%) (MEXF 394NL; 23. μg/ml): 2% | Test/Control activity class (MEXF 394NL; 23. μg/ml): +++ (+++ (T/C < 10)) | Test/Control (%) (MEXF 394NL; 75. μg/ml): 2% | Test/Control activity class (MEXF 394NL; 75. μg/ml): +++ (+++ (T/C < 10)) | Test/Control (%) (MEXF 394NL; .75 μg/ml): 99% | Test/Control activity class (MEXF 394NL; .75 μg/ml): − (− (T/C = 50)) | Test/Control (%) (PRXF DU145; 2.3 μg/ml): 94% | Test/Control activity class (PRXF DU145; 2.3 μg/ml): − (− (T/C = 50)) | Test/Control (%) (PRXF DU145; 7.5 μg/ml): 4% | Test/Control activity class (PRXF DU145; 7.5 μg/ml): +++ (+++ (T/C < 10)) | Test/Control (%) (PRXF DU145; 23. μg/ml): 1% | Test/Control activity class (PRXF DU145; 23. μg/ml): +++ (+++ (T/C < 10)) | Test/Control (%) (PRXF DU145; 75. μg/ml): 1% | Test/Control activity class (PRXF DU145; 75. μg/ml): +++ (+++ (T/C < 10)) | Test/Control (%) (PRXF DU145; .75 μg/ml): 102% | Test/Control activity class (PRXF DU145; .75 μg/ml): − (− (T/C = 50)) | Test/Control (%) (RXF 393NL; 2.3 μg/ml): 91% | Test/Control activity class (RXF 393NL; 2.3 μg/ml): − (− (T/C = 50)) | Test/Control (%) (RXF 393NL; 7.5 μg/ml): 5% | Test/Control activity class (RXF 393NL; 7.5 μg/ml): +++ (+++ (T/C < 10)) | Test/Control (%) (RXF 393NL; 23. μg/ml): 1% | Test/Control activity class (RXF 393NL; 23. μg/ml): +++ (+++ (T/C < 10)) | Test/Control (%) (RXF 393NL; 75. μg/ml): 1% | Test/Control activity class (RXF 393NL; 75. μg/ml): +++ (+++ (T/C < 10)) | Test/Control (%) (RXF 393NL; .75 μg/ml): 96% | Test/Control activity class (RXF 393NL; .75 μg/ml): − (− (T/C = 50)) | Test/Control (%) (RXF 486L; 2.3 μg/ml): 103% | Test/Control activity class (RXF 486L; 2.3 μg/ml): − (− (T/C = 50)) | Test/Control (%) (RXF 486L; 7.5 μg/ml): 81% | Test/Control activity class (RXF 486L; 7.5 μg/ml): − (− (T/C = 50)) | Test/Control (%) (RXF 486L; 23. μg/ml): 9% | Test/Control activity class (RXF 486L; 23. μg/ml): +++ (+++ (T/C < 10)) | Test/Control (%) (RXF 486L; 75. μg/ml): 5% | Test/Control activity class (RXF 486L; 75. μg/ml): +++ (+++ (T/C < 10)) | Test/Control (%) (RXF 486L; .75 μg/ml): 102% | Test/Control activity class (RXF 486L; .75 μg/ml): − (− (T/C = 50)) | potency compared with paroxetine ([6]; 10-30 μM, FIG. 2A): higher potency than paroxetine | potency compared with paroxetine and fluoxetine ([6]; equimolar doses, FIG. 2B): significantly more potent than paroxetine and fluoxetine
